Tested on: SKOV3 cells (human ovarian carcinoma)
Assay: SKOV3 subcutaneous xenograft tumor growth inhibition in female SCID mice
Type: in vivo
Conditions: 21 days, alone, SKOV3 tumors in SCID mice
Method: Female SCID mice were implanted subcutaneously with 5×10^6 SKOV3 cells (human ovarian carcinoma). When the tumor volume reached 300-400 mm^3, mice were block randomized to different treatment groups (n=8 mice/group). Mice received AKT inhibitor, Compound B (in this assay, Compound B, is used in the form of the free or unsalted compound), at 10 or 30 mg/kg, once daily (SID) for 21 days in 20% PEG-400, 1% DMSO in water. Compound A (in this assay, Compound A, is used in the form of monohydrochloride salt) was administered at 100 mg/kg, twice/day (BID) for 21 days either alone or in combination with Compound B. Mice were weighed and tumors measured by calipers twice weekly. Tumor volumes were calculated using the formula: tumor volume=(Length×Width^2)/2. The percentage of tumor growth inhibition was calculated on each day of tumor measurement using the formula: 100×[1-(average growth of the compound-treated tumors/average growth of vehicle-treated control tumors)].

SMILES | inhibition of tumor growth compared to vehicle treated mice (Compound A (monohydrochloride salt) 100 mg/kg, twice daily) [%] | inhibition of tumor growth compared to vehicle treated mice (Compound B (free compound) 10 mg/kg, once daily) [%] | inhibition of tumor growth compared to vehicle treated mice (Compound B (free compound) 30 mg/kg, once daily) [%]
Cc1ccc(Nc2nccc(N(C)c3ccc4c(C)n(C)nc4c3)n2)cc1S(N)(=O)=O [Compound A, 5-[[4-[(2,3-dimethyl-2H-indazol-6-yl)methylamino]-2-pyrimidinyl]amino]-2-methylbenzenesulfonamide, reference compound] | 47 |  | 
Cn1ncc(Cl)c1-c1cc(C(=O)N[C@H](CN)Cc2ccc(F)c(F)c2)oc1Cl [Compound B, N-{(1S)-2-amino-1-[(3,4-difluorophenyl)methyl]ethyl}-5-chloro-4-(4-chloro-1-methyl-1H-pyrazol-5-yl)-2-furancarboxamide] |  | 67 | 86

From US20150272950A1, “COMBINATION” (GLAXOSMITHKLINE LLC, priority 2012, published 2015)
